Results published in patent US8058314B2, “Conductance of improperly folded proteins through the secretory pathway and related methods for treating disease” (Yale University, priority 1999, dated 2011).

Key:
[1] = tested on: α1-antitrypsin, null (Hong Kong); experiment: Secretion of α1-antitrypsin null (Hong Kong) from stably transfected mouse hepatoma cells, pulse-chase; assay type: cell-based; conditions: 1 μM thapsigargin for 3 hours during chase
Method: Experiment 2 is repeated using a cell line that expresses a retention mutation for cc1-antitrypsin, such as the secretion-incompetent variant, null (Hong Kong), retained in stably transfected mouse hepatoma cells (J. Biol. Chem. 269:7514-7519 (1994)). Changes in the cell phenotype are assessed by assaying cells for secretion of a 1-antitrypsin (detailed description in J. Biol. Chem. 268:2001-2008 (1993)).
Briefly, cell monolayers are pulse labeled with [^35S] methionine for 30 minutes, after which the radiolabeled media is removed and replaced with media containing an excess of unlabeled methionine. During the chase period, one set of monolayers is treated with 1 μM thapsigargin for 3 hours, while another set is incubated for 3 hours in drug free media. Secretion of α1-antitrypsin into the media is assessed by immunoprecipitation followed by electrophoresis and autoradiography.
Results. Cells expressing the secretion-incompetent variant of α1-antitrypsin, null (Hong Kong), are pulse labeled for 30 minutes with [^35S] methionine, after which they were incubated in non-radioactive media for 3 hours in the presence or absence of 1 μM thapsigargin. After this chase incubation, the media is collected and subjected to immunoprecipitation with anti-α1-antitrypsin antibodies. Immunoprecipitates are analyzed by SDS-PAGE followed by autoradiography.

[2] = Toxicity test, thapsigargin in drinking water; assay type: in vivo, mice; conditions: drinking water with 1 μM thapsigargin over 3 to 7 days
Method: Genetically uniform lab mice were given either normal drinking water (control) or drinking water which contained thapsigargin (1 μM final concentration). The non-control group of mice were given the thapsigargin-treated water over a 3 to 7 day time period.

CFPAC-1 cells = experiment: Short circuit current (Ussing chamber) of CFPAC-1 monolayers after cAMP stimulation; assay type: cell-based, human; conditions: 1 uM thapsigargin 1.5 hours, 2 hours recovery, 10 uM forskolin and 100 uM IBMX, n=12
Method: The cell line is homozygous for expression of ΔF508 CFTR and has the ion transport properties of CF-affected epithelia. CFPAC-1 cells show epithelial morphology and polarization with apical microvilli.
CFPAC cells were grown at 370 in 5% CO2 and maintained in Isocove's modified Dulbucco's medium supplemented with 10% fetal calf serum. Both for measurements of short circuit current and for immunofluorescence experiments, these cells were grown on collagen coated permeable supports (Transwell Snapwell filter cups, Corning Costar, Cambridge, Mass.).
CFPAC-1 or T84 cells were grown on collagen coated permeable supports (Transwell Snapwell filter cups, Corning Costar, Cambridge, Mass.). […]
Ag—AgCl wires were embedded in 3M KCl agar bridges were used as voltage and current electrodes on each side of the monolayer contained in an Ussing chamber system (World Precision Instruments, WPI). Voltage was clamped using an EC-825 voltage clamp amplifier (Warner Instruments) with a digital current and voltage readout. The transepithelial potential difference (Vlc) is continuously recorded. At 5-minute intervals the Vtc is clamped to 0 and the short circuit current (Isc) was determined. […]
After cells were mounted in the Ussing chamber electrical parameters were assessed for 20 to 30 minutes (control period). […] During these maneuvers, electrical parameters were continuously monitored.

SMILES: C/C=C(/C)C(=O)O[C@H]1C(C)=C2[C@H]([C@@H]1OC(=O)CCCCCCC)[C@@](C)(OC(C)=O)C[C@H](OC(=O)CCC)[C@@]1(O)[C@H]2OC(=O)[C@@]1(C)O [thapsigargin]
- radiolabeled α1-antitrypsin in the media [1]: Radiolabeled α1-antitrypsin protein is present in the media
- deaths, illnesses or side effects [2]: no deaths, illnesses or side effects
- increase in short circuit current after cAMP-stimulation cocktail (CFPAC-1 cells): 14.6±6.6%
